Data from US6472348B1, “Pyridone derivatives and herbicides” (Kumiai Chemical Industry Co., Ltd., priority 1996, dated 2002).

Tests used:
Format in all cases: in vivo
barnyardgrass (Ec) [1] = assay: Test Example 1: herbicidal effects by paddy field soil treatment; details: 100 g of the active ingredient per 10 ares, 21st day after the application, index 0-5 of Table 47;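 further: grade of growth control; 5 = at least 90%; 4 = 70 to 90%; 3 = 50 to 70%; 2 = 30 to 50%; 1 = 10 to 30%; 0 = under 10%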
Procedure: (§1) (Test on Herbicidal Effects by Paddy Field Soil Treatment)
(§2) In a plastic pot (surface area: 100 cm^2) filled with paddy field soil, barnyardgrass (Ec), monochoria (Mo) and bulrush (Sc) were sown after puddling and leveling, and flooded to a water depth of 3 cm. […] The dose was 100 g of the active ingredient per 10 ares. The plants were then cultured in a green house, and the evaluation of the herbicidal effects was conducted on the 21st day after the application in accordance with the standards as identified in Table 47.

bulrush (Sc) = assay: as above; details: 100 g of the active ingredient per 10 ares, 21st day after the application, index 0-5 of Table 47;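 further: grade of growth control; 5 = at least 90%; 4 = 70 to 90%; 3 = 50 to 70%; 2 = 30 to 50%; 1 = 10 to 30%; 0 = under 10%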
Procedure: as §1, §2

monochoria (Mo) = assay: as above; details: 100 g of the active ingredient per 10 ares, 21st day after the application, index 0-5 of Table 47;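 further: grade of growth control; 5 = at least 90%; 4 = 70 to 90%; 3 = 50 to 70%; 2 = 30 to 50%; 1 = 10 to 30%; 0 = under 10%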
Procedure: as §1, §2

barnyardgrass (Ec) [2] = assay: Test Example 3: herbicidal effects by upland field foliage treatment; design: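 grade of growth control; 5 = at least 90%; 4 = 70 to 90%; 3 = 50 to 70%; 2 = 30 to 50%; 1 = 10 to 30%; 0 = under 10%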
Procedure: (§3) (Test on Herbicidal Effects by Upland Field Foliage Treatment)
(§4) In a plastic pot (surface area: 120 cm^2) filled with sand, barnyardgrass (Ec), Diaitaria ciliaris (Di), pale smartweed (Po), slender amaranth (Am), common lambsquarters (Ch) and rice flatsedge (Ci) were sown and covered with soil and were cultured in a green house for 2 weeks. […] The plants were then cultured in the green house, and the evaluation of the herbicidal effects was conducted on the 14th day after the treatment in accordance with the standards as identified in Table 47. Symbol—represents “not tested”.

pale smartweed (Po) [3] = assay: as above; design: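 grade of growth control; 5 = at least 90%; 4 = 70 to 90%; 3 = 50 to 70%; 2 = 30 to 50%; 1 = 10 to 30%; 0 = under 10%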
Procedure: as §3, §4

rice flatsedge (Ci) [4] = assay: as above; design: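 grade of growth control; 5 = at least 90%; 4 = 70 to 90%; 3 = 50 to 70%; 2 = 30 to 50%; 1 = 10 to 30%; 0 = under 10%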
Procedure: as §3, §4

slender amaranth (Am) [5] = assay: as above; design: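 grade of growth control; 5 = at least 90%; 4 = 70 to 90%; 3 = 50 to 70%; 2 = 30 to 50%; 1 = 10 to 30%; 0 = under 10%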
Procedure: as §3, §4

Diaitaria ciliaris (Di) = assay: as above; design: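 grade of growth control; 5 = at least 90%; 4 = 70 to 90%; 3 = 50 to 70%; 2 = 30 to 50%; 1 = 10 to 30%; 0 = under 10%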
Procedure: as §3, §4

[6] = test system: common lambsquarters (Ch); assay: as above; design: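 grade of growth control; 5 = at least 90%; 4 = 70 to 90%; 3 = 50 to 70%; 2 = 30 to 50%; 1 = 10 to 30%; 0 = under 10%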
Procedure: as §3, §4

barnyardgrass (Ec) [7] = assay: Test Example 2: herbicidal effects by upland field soil treatment; details: 100 g of the active ingredient per 10 ares;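 further: grade of growth control; 5 = at least 90%; 4 = 70 to 90%; 3 = 50 to 70%; 2 = 30 to 50%; 1 = 10 to 30%; 0 = under 10%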
Text: (§5) (Test on Herbicidal Effects by Upland Field Soil Treatment)

pale smartweed (Po) [8] = assay: as above; details: 100 g of the active ingredient per 10 ares
Text: as §5

rice flatsedge (Ci) [9] = assay: as above; details: 100 g of the active ingredient per 10 ares
Text: as §5

slender amaranth (Am) [10] = assay: as above; details: 100 g of the active ingredient per 10 ares
Text: as §5

Digitaria ciliaris (Di) = assay: as above; details: 100 g of the active ingredient per 10 ares
Text: as §5

[11] = test system: common lambsquarters (Ch); assay: as above; details: 100 g of the active ingredient per 10 ares
Text: as §5

[12] = 100 g of the active ingredient per 10 ares, evaluated on the 14th day after treatment
[13] = 21st day after the application, index 0-5 of Table 47
[14] = 100 g active ingredient per 10 ares, evaluated 14th day after treatment
[15] = evaluated on the 21st day after application

Compound | Herbicidal effects Ec (barnyardgrass (Ec) [1]) | Herbicidal effects Sc (bulrush (Sc)) | Herbicidal effects Mo (monochoria (Mo)) | Herbicidal effects Ec (barnyardgrass (Ec) [2]; [12]) | Herbicidal effects Po (pale smartweed (Po) [3]; [12]) | Herbicidal effects Ci (rice flatsedge (Ci) [4]; [12]) | Herbicidal effects Am (slender amaranth (Am) [5]; [12]) | Herbicidal effects Di (Diaitaria ciliaris (Di); [12]) | Herbicidal effects Ch [6, 12] | Herbicidal effects Ec (barnyardgrass (Ec) [7]; [13]) | Herbicidal effects Po (pale smartweed (Po) [8]; [13]) | Herbicidal effects Ci (rice flatsedge (Ci) [9]; [13]) | Herbicidal effects Am (slender amaranth (Am) [10]; [13]) | Herbicidal effects Di (Digitaria ciliaris (Di); [13]) | Herbicidal effects Ch [11, 13] | Herbicidal effects Ec (barnyardgrass (Ec) [7]; [15]) | Herbicidal effects Po (pale smartweed (Po) [8]; [15]) | Herbicidal effects Ci (rice flatsedge (Ci) [9]; [15]) | Herbicidal effects Am (slender amaranth (Am) [10]; [15]) | Herbicidal effects Di (Digitaria ciliaris (Di); [15]) | further results
COC(=O)COc1cc(-c2ccc(C(F)(F)F)n(C)c2=O)c(F)cc1Cl [1-99] | 5 | 5 | 5 | 5 | 5 | 5 | 5 | 5 | 5 | 5 | 5 | 5 | 5 | 5 | 5 | – | – | – | – | – | –
C=CCOc1cc(-c2ccc(C(F)(F)F)n(C)c2=O)c(Cl)cc1Cl [1-32] | 5 | 5 | 5 | 5 | 5 | 5 | 5 | 5 | 5 | 5 | 5 | 5 | 5 | 5 | 5 | – | – | – | – | – | –
CC(C)COc1cc(-c2ccc(C(F)(F)F)n(C)c2=O)c(F)cc1Cl [1-168] | 5 | 5 | 5 | 5 | 5 | 5 | 5 | 5 | 5 | 5 | 5 | 5 | 5 | 5 | 5 | – | – | – | – | – | –
Cn1c(C(F)(F)F)ccc(-c2c(Cl)cc(Cl)c3oc(C(Br)Br)cc23)c1=O [Compound 4-29] | 5 | 5 | 5 | – | – | – | – | – | – | – | – | – | – | – | – | 5 | 5 | 5 | 5 | 5 | Herbicidal effects Ec (barnyardgrass (Ec) [2]; [14]): 5; Herbicidal effects Po (pale smartweed (Po) [3]; [14]): 5; Herbicidal effects Ci (rice flatsedge (Ci) [4]; [14]): 5; Herbicidal effects Am (slender amaranth (Am) [5]; [14]): 5; Herbicidal effects Di (Diaitaria ciliaris (Di); [14]): 5; Herbicidal effects Ch [6, 14]: 5; Herbicidal effects Ch [11, 15]: 5
CN1C(=O)COc2cc(F)c(-c3ccc(C(F)(F)F)n(C)c3=O)cc21 [Compound 2-16] | 5 | 5 | 5 | – | – | – | – | – | – | – | – | – | – | – | – | 5 | 5 | 5 | 5 | 5 | Herbicidal effects Ec (barnyardgrass (Ec) [2]; [14]): 5; Herbicidal effects Po (pale smartweed (Po) [3]; [14]): 5; Herbicidal effects Ci (rice flatsedge (Ci) [4]; [14]): 5; Herbicidal effects Am (slender amaranth (Am) [5]; [14]): 5; Herbicidal effects Di (Diaitaria ciliaris (Di); [14]): 5; Herbicidal effects Ch [6, 14]: 5; Herbicidal effects Ch [11, 15]: 5
COCOc1cc(-c2ccc(C(F)(F)F)n(C)c2=O)c(F)cc1Cl [1-24] | 5 | 5 | 5 | 5 | 5 | 5 | 5 | 5 | 5 | 5 | 5 | 5 | 5 | 5 | 5 | – | – | – | – | – | –
C=CCOc1cc(Cl)cc(F)c1-c1ccc(C(F)(F)F)n(C)c1=O [1′-3] | 5 | 4 | 5 | – | – | – | – | – | – | – | – | – | – | – | – | 5 | 5 | 5 | 5 | 5 | Herbicidal effects Ec (barnyardgrass (Ec) [2]; [14]): 5; Herbicidal effects Po (pale smartweed (Po) [3]; [14]): 5; Herbicidal effects Ci (rice flatsedge (Ci) [4]; [14]): 5; Herbicidal effects Am (slender amaranth (Am) [5]; [14]): 5; Herbicidal effects Di (Diaitaria ciliaris (Di); [14]): 5; Herbicidal effects Ch [6, 14]: 5; Herbicidal effects Ch [11, 15]: 5
CCCCOc1cc(-c2ccc(C(F)(F)F)n(C)c2=O)c(F)cc1Cl [1-166] | 5 | 5 | 5 | 4 | 5 | 5 | 5 | 5 | 5 | 5 | 5 | 5 | 5 | 5 | 5 | – | – | – | – | – | –
CC#CCOc1cc(-c2ccc(C(F)(F)F)n(C)c2=O)c(F)cc1Cl [1-175] | 5 | 5 | 5 | 5 | 5 | 5 | 5 | 5 | 5 | – | – | – | – | – | – | 5 | 5 | 5 | 5 | 5 | Herbicidal effects Ch [11, 15]: 5
CC=CCOc1cc(-c2ccc(C(F)(F)F)n(C)c2=O)c(F)cc1Cl [1-152] | 5 | 5 | 5 | 5 | 5 | 5 | 5 | 5 | 5 | 5 | 5 | 5 | 5 | 5 | 5 | – | – | – | – | – | –
CCCOC(=O)COc1cc(-c2ccc(C(F)(F)F)n(C)c2=O)c(F)cc1Cl [1-104] | 5 | 5 | 5 | 5 | 5 | 5 | 5 | 5 | 5 | 5 | 5 | 5 | 5 | 5 | 5 | – | – | – | – | – | –
COC(=O)c1cc(-c2ccc(C(F)(F)F)n(C)c2=O)c(F)cc1Cl [1-157] | 5 | 5 | 5 | 5 | 5 | 5 | 5 | 5 | 5 | 5 | 5 | 5 | 5 | 5 | 5 | – | – | – | – | – | –
Cn1c(C(F)(F)F)ccc(-c2cc(OCC(=O)OC3CCCC3)c(Cl)cc2F)c1=O [1-102] | 5 | 5 | 5 | 5 | 5 | 5 | 5 | 5 | 5 | 5 | 4 | 5 | 5 | 5 | 5 | – | – | – | – | – | –
C=CCOc1cc(-c2cn(C)c(C(F)(F)F)cc2=O)c(F)cc1Cl [Compound 6-8] | 5 | 5 | 5 | – | – | – | – | – | – | – | – | – | – | – | – | 5 | 5 | 5 | 5 | 5 | Herbicidal effects Ec (barnyardgrass (Ec) [2]; [14]): 5; Herbicidal effects Po (pale smartweed (Po) [3]; [14]): 5; Herbicidal effects Ci (rice flatsedge (Ci) [4]; [14]): 5; Herbicidal effects Am (slender amaranth (Am) [5]; [14]): 5; Herbicidal effects Di (Diaitaria ciliaris (Di); [14]): 5; Herbicidal effects Ch [6, 14]: 5; Herbicidal effects Ch [11, 15]: 5
CCOC(=O)C(C)Oc1cc(-c2ccc(C(F)(F)F)n(C)c2=O)c(F)cc1Cl (stereo not drawn) [1-21] | 5 | 5 | 5 | 5 | 5 | 5 | 5 | 5 | 5 | 5 | 5 | 5 | 5 | 5 | 5 | – | – | – | – | – | –
COCCOc1cc(-c2ccc(C(F)(F)F)n(C)c2=O)c(Cl)cc1Cl [Compound 1-211] | 5 | 5 | 5 | – | – | – | – | – | – | – | – | – | – | – | – | 5 | 5 | 5 | 5 | 5 | Herbicidal effects Ec (barnyardgrass (Ec) [2]; [14]): 4; Herbicidal effects Po (pale smartweed (Po) [3]; [14]): 5; Herbicidal effects Ci (rice flatsedge (Ci) [4]; [14]): 5; Herbicidal effects Am (slender amaranth (Am) [5]; [14]): 5; Herbicidal effects Di (Diaitaria ciliaris (Di); [14]): 5; Herbicidal effects Ch [6, 14]: 5; Herbicidal effects Ch [11, 15]: 5
CCOCc1cc2c(-c3ccc(C(F)(F)F)n(C)c3=O)c(F)cc(Cl)c2o1 [Compound 4-31] | 5 | 5 | 5 | – | – | – | – | – | – | – | – | – | – | – | – | 5 | 5 | 5 | 5 | 5 | Herbicidal effects Ec (barnyardgrass (Ec) [2]; [14]): 5; Herbicidal effects Po (pale smartweed (Po) [3]; [14]): 5; Herbicidal effects Ci (rice flatsedge (Ci) [4]; [14]): 5; Herbicidal effects Am (slender amaranth (Am) [5]; [14]): 5; Herbicidal effects Di (Diaitaria ciliaris (Di); [14]): 5; Herbicidal effects Ch [6, 14]: 5; Herbicidal effects Ch [11, 15]: 5
Cn1c(C(F)(F)F)ccc(-c2ccc(Cl)cc2Cl)c1=O [1-3] | 5 | 5 | 5 | 5 | 5 | 5 | 5 | 5 | 5 | 5 | 5 | 5 | 5 | 5 | 5 | – | – | – | – | – | –
